3 h FOB score data for 23 substances are collected here from the OligoGym collection.

HELM strings list units from the 5' end as sugar, base in round brackets, then linkage (d deoxyribose, r ribose, m 2'-O-methyl, p phosphodiester). Strings are as the collection lists them; they lack the last nucleoside at the 3' end of the tested compound. [moe] = 2'-O-(2-methoxyethyl) (MOE); [sp] = phosphorothioate linkage; [m5C] = 5-methylcytosine

The target in the data set is SMN2. Description: mouse, dose not given. The note with it: ASO.
On to “RNA1{[moe](G)[sp].[moe](A)[sp].[moe](T)[sp].[moe](T)[sp].[moe]([m5C])[sp].[moe](A)[sp].[moe]([m5C])[sp].[moe](T)[sp].[moe](T)[sp].[moe](T)[sp].[moe]([m5C])[sp].[moe](A)[sp].[moe](T)[sp].[moe](A)[sp].[moe](A)[sp].[moe](T)[sp].[moe](G)[sp].[moe]([m5C])}$$$$ (last 3' nucleoside missing)”, for which the 3 h FOB score was 2 score 0-7. “RNA1{[moe]([m5C])[sp].[moe](A)p.[moe]([m5C])[sp].[moe](T)[sp].[moe](T)[sp].[moe](T)p.[moe]([m5C])[sp].[moe](A)[sp].[moe](T)[sp].[moe](A)[sp].[moe](A)[sp].[moe](T)[sp].[moe](G)[sp].[moe]([m5C])[sp].[moe](T)[sp].[moe](G)[sp].[moe](G)}$$$$ (last 3' nucleoside missing)”: the 3 h FOB score came out at 0 score 0-7. Then “RNA1{[moe](A)[sp].[moe](T)p.[moe](T)[sp].[moe]([m5C])p.[moe](A)[sp].[moe]([m5C])[sp].[moe](T)[sp].[moe](T)[sp].[moe](T)[sp].[moe]([m5C])[sp].[moe](A)[sp].[moe](T)[sp].[moe](A)[sp].[moe](A)[sp].[moe](T)[sp].[moe](G)[sp].[moe]([m5C])[sp].[moe](T)[sp].[moe](G)}$$$$ (last 3' nucleoside missing)”, with 3.5 score 0-7. The substance “RNA1{[moe]([m5C])[sp].[moe](A)[sp].[moe]([m5C])[sp].[moe](T)[sp].[moe](T)[sp].[moe](T)[sp].[moe]([m5C])[sp].[moe](A)[sp].[moe](T)[sp].[moe](A)[sp].[moe](A)[sp].[moe](T)[sp].[moe](G)[sp].[moe]([m5C])[sp].[moe](T)p.[moe](G)[sp].[moe](G)}$$$$ (last 3' nucleoside missing)” gave a 3 h FOB score of 0 score 0-7. Substance “RNA1{[moe](A)[sp].[moe]([m5C])[sp].[moe](T)[sp].[moe](T)[sp].[moe](T)[sp].[moe]([m5C])p.[moe](A)p.[moe](T)p.[moe](A)p.[moe](A)p.[moe](T)p.[moe](G)[sp].[moe]([m5C])[sp].[moe](T)[sp].[moe](G)[sp].[moe](G)}$$$$ (last 3' nucleoside missing)” registered a 3 h FOB score of 0 score 0-7. As to “RNA1{[moe](T)[sp].[moe]([m5C])[sp].[moe](A)[sp].[moe]([m5C])[sp].[moe](T)[sp].[moe](T)[sp].[moe](T)[sp].[moe]([m5C])[sp].[moe](A)[sp].[moe](T)p.[moe](A)[sp].[moe](A)[sp].[moe](T)[sp].[moe](G)p.[moe]([m5C])[sp].[moe](T)[sp].[moe](G)}$$$$ (last 3' nucleoside missing)”, the 3 h FOB score came out at 3.5 score 0-7. Under “RNA1{[moe](T)[sp].[moe]([m5C])[sp].[moe](A)[sp].[moe]([m5C])[sp].[moe](T)[sp].[moe](T)[sp].[moe](T)[sp].[moe]([m5C])[sp].[moe](A)[sp].[moe](T)[sp].[moe](A)[sp].[moe](A)[sp].[moe](T)[sp].[moe](G)[sp].[moe]([m5C])p.[moe](T)[sp].[moe](G)}$$$$ (last 3' nucleoside missing)” stands 2.75 score 0-7; under “RNA1{[moe](A)[sp].[moe]([m5C])[sp].[moe](T)p.[moe](T)[sp].[moe](T)p.[moe]([m5C])[sp].[moe](A)p.[moe](T)[sp].[moe](A)p.[moe](A)[sp].[moe](T)p.[moe](G)[sp].[moe]([m5C])p.[moe](T)[sp].[moe](G)[sp].[moe](G)}$$$$ (last 3' nucleoside missing)”, 0 score 0-7. “RNA1{[moe](A)[sp].[moe](G)[sp].[moe](A)[sp].[moe](T)[sp].[moe](T)[sp].[moe]([m5C])[sp].[moe](A)[sp].[moe]([m5C])[sp].[moe](T)[sp].[moe](T)[sp].[moe](T)[sp].[moe]([m5C])[sp].[moe](A)[sp].[moe](T)[sp].[moe](A)[sp].[moe](A)[sp].[moe](T)[sp].[moe](G)[sp].[moe]([m5C])}$$$$ (last 3' nucleoside missing)” had a 3 h FOB score of 3.5 score 0-7. Substance “RNA1{[moe](T)[sp].[moe](T)p.[moe]([m5C])[sp].[moe](A)p.[moe]([m5C])[sp].[moe](T)[sp].[moe](T)[sp].[moe](T)[sp].[moe]([m5C])[sp].[moe](A)[sp].[moe](T)[sp].[moe](A)[sp].[moe](A)[sp].[moe](T)[sp].[moe](G)[sp].[moe]([m5C])[sp].[moe](T)[sp].[moe](G)}$$$$ (last 3' nucleoside missing)” gave a 3 h FOB score of 2.25 score 0-7. “RNA1{[moe]([m5C])[sp].[moe](A)[sp].[moe]([m5C])[sp].[moe](T)[sp].[moe](T)[sp].[moe](T)[sp].[moe]([m5C])[sp].[moe](A)[sp].[moe](T)[sp].[moe](A)[sp].[moe](A)[sp].[moe](T)[sp].[moe](G)[sp].[moe]([m5C])[sp].[moe](T)[sp].[moe](G)}$$$$ (last 3' nucleoside missing)”: the 3 h FOB score was 3.25 score 0-7. “RNA1{[moe](A)[sp].[moe]([m5C])p.[moe](T)p.[moe](T)p.[moe](T)p.[moe]([m5C])[sp].[moe](A)[sp].[moe](T)[sp].[moe](A)[sp].[moe](A)[sp].[moe](T)[sp].[moe](G)p.[moe]([m5C])p.[moe](T)p.[moe](G)[sp].[moe](G)}$$$$ (last 3' nucleoside missing)” yielded a 3 h FOB score of 0 score 0-7.

“RNA1{[moe]([m5C])[sp].[moe](A)[sp].[moe]([m5C])[sp].[moe](T)[sp].[moe](T)[sp].[moe](T)[sp].[moe]([m5C])[sp].[moe](A)[sp].[moe](T)[sp].[moe](A)[sp].[moe](A)[sp].[moe](T)[sp].[moe](G)[sp].[moe]([m5C])[sp].[moe](T)[sp].[moe](G)[sp].[moe](G)[sp].[moe]([m5C])[sp].[moe](A)}$$$$ (last 3' nucleoside missing)”: the 3 h FOB score was determined as 0 score 0-7. “RNA1{[moe]([m5C])[sp].[moe](T)[sp].[moe](T)[sp].[moe](T)[sp].[moe]([m5C])[sp].[moe](A)p.[moe](T)p.[moe](A)p.[moe](A)p.[moe](T)p.[moe](G)[sp].[moe]([m5C])[sp].[moe](T)[sp].[moe](G)[sp].[moe](G)}$$$$ (last 3' nucleoside missing)” displayed a 3 h FOB score of 1 score 0-7. With “RNA1{[moe](T)[sp].[moe]([m5C])[sp].[moe](A)[sp].[moe]([m5C])[sp].[moe](T)[sp].[moe](T)[sp].[moe](T)[sp].[moe]([m5C])[sp].[moe](A)p.[moe](T)[sp].[moe](A)[sp].[moe](A)[sp].[moe](T)[sp].[moe](G)p.[moe]([m5C])[sp].[moe](T)[sp].[moe](G)}$$$$ (last 3' nucleoside missing)”, the 3 h FOB score turned out to be 3.5 score 0-7. The substance “RNA1{[moe]([m5C])[sp].[moe](T)[sp].[moe](T)p.[moe](T)p.[moe]([m5C])p.[moe](A)p.[moe](T)[sp].[moe](A)[sp].[moe](A)[sp].[moe](T)[sp].[moe](G)[sp].[moe]([m5C])[sp].[moe](T)[sp].[moe](G)[sp].[moe](G)}$$$$ (last 3' nucleoside missing)” came in with a 3 h FOB score of 0 score 0-7. Regarding “RNA1{[moe]([m5C])[sp].[moe](A)[sp].[moe]([m5C])[sp].[moe](T)[sp].[moe](T)p.[moe](T)[sp].[moe]([m5C])[sp].[moe](A)[sp].[moe](T)[sp].[moe](A)[sp].[moe](A)[sp].[moe](T)[sp].[moe](G)[sp].[moe]([m5C])[sp].[moe](T)p.[moe](G)[sp].[moe](G)}$$$$ (last 3' nucleoside missing)”, the 3 h FOB score turned out to be 0 score 0-7.

Consider “RNA1{[moe]([m5C])[sp].[moe](T)[sp].[moe](T)[sp].[moe](T)[sp].[moe]([m5C])[sp].[moe](A)[sp].[moe](T)[sp].[moe](A)[sp].[moe](A)p.[moe](T)p.[moe](G)p.[moe]([m5C])p.[moe](T)[sp].[moe](G)[sp].[moe](G)}$$$$ (last 3' nucleoside missing)”, for which the 3 h FOB score was 0 score 0-7. Under “RNA1{[moe](A)[sp].[moe]([m5C])p.[moe](T)p.[moe](T)p.[moe](T)[sp].[moe]([m5C])[sp].[moe](A)[sp].[moe](T)[sp].[moe](A)[sp].[moe](A)[sp].[moe](T)[sp].[moe](G)p.[moe]([m5C])p.[moe](T)p.[moe](G)[sp].[moe](G)}$$$$ (last 3' nucleoside missing)” stands 0 score 0-7. Under “RNA1{[moe](T)[sp].[moe](T)p.[moe]([m5C])[sp].[moe](A)[sp].[moe]([m5C])[sp].[moe](T)[sp].[moe](T)[sp].[moe](T)[sp].[moe]([m5C])[sp].[moe](A)[sp].[moe](T)[sp].[moe](A)[sp].[moe](A)[sp].[moe](T)[sp].[moe](G)[sp].[moe]([m5C])[sp].[moe](T)[sp].[moe](G)}$$$$ (last 3' nucleoside missing)” stands 3 score 0-7. Under “RNA1{[moe]([m5C])[sp].[moe](A)p.[moe]([m5C])p.[moe](T)[sp].[moe](T)[sp].[moe](T)[sp].[moe]([m5C])[sp].[moe](A)[sp].[moe](T)[sp].[moe](A)[sp].[moe](A)[sp].[moe](T)[sp].[moe](G)[sp].[moe]([m5C])p.[moe](T)p.[moe](G)[sp].[moe](G)}$$$$ (last 3' nucleoside missing)” stands 0 score 0-7.

Substance “RNA1{[moe]([m5C])[sp].[moe](A)[sp].[moe]([m5C])[sp].[moe](T)[sp].[moe](T)[sp].[moe](T)[sp].[moe]([m5C])[sp].[moe](A)[sp].[moe](T)[sp].[moe](A)[sp].[moe](A)[sp].[moe](T)[sp].[moe](G)[sp].[moe]([m5C])[sp].[moe](T)[sp].[moe](G)[sp].[moe](G)}$$$$ (last 3' nucleoside missing)” registered a 3 h FOB score of 2.5 score 0-7.

Regarding “RNA1{[moe]([m5C])[sp].[moe](A)[sp].[moe]([m5C])p.[moe](T)[sp].[moe](T)[sp].[moe](T)[sp].[moe]([m5C])[sp].[moe](A)[sp].[moe](T)[sp].[moe](A)[sp].[moe](A)[sp].[moe](T)[sp].[moe](G)[sp].[moe]([m5C])[sp].[moe](T)[sp].[moe](G)[sp].[moe](G)}$$$$ (last 3' nucleoside missing)”, the 3 h FOB score was found to be 1 score 0-7.
